Data published in patent publication US7629323B2, “Manipulation of neuronal ion channels” (Northwestern University, priority 2003, dated 2009).

What was measured:
Kv3.1 channel = biological target: T1, Kv3.1 channel (Rattus norvegicus, UniProt P25122); conditions: low micromolar concentrations; cited from earlier work
T1 sequence (P25122 1-585): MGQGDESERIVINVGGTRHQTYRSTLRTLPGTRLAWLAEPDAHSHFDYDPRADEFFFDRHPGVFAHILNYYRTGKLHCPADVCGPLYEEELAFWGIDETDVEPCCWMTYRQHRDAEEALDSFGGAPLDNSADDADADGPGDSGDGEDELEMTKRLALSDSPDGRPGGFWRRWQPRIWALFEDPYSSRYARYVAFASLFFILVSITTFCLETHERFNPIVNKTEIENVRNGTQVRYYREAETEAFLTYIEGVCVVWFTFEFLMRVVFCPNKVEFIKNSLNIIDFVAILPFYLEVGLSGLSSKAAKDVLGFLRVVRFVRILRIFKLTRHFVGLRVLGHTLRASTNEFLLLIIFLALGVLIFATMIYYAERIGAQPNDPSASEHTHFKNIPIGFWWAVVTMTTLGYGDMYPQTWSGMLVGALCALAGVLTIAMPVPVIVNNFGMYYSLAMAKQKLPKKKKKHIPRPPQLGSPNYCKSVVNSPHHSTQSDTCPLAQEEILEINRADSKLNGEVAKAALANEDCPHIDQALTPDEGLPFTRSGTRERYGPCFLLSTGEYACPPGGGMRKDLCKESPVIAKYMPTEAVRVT

FS neurons = experiment: Current clamp recording of spiking in FS neurons; assay type: cell-based, rat
Source text: Tissue preparation. […] Hippocampal interneurons and GP were identified as CaMKII negative, GAD67 and parvalbumin positive neurons by single cell RT-PCR detection of corresponding mRNAs following physiology experiments (see below).
Electrophysiology. Whole-cell recordings used standard techniques^27,28. The internal solution consisted of (in mM): 30-90 K2SO4, 0-60 N-methyl-D-glucamine, 2 MgCl2, 40 HEPES, 5 EGTA, 12 phosphocreatine, 2 Na2ATP, 0.2 Na3GTP, and 0.1 leupeptin, pH 7.2 with H2SO4 (osmolarity 260-270 mOsm/l). The external solution consisted of (in mM): 140 Na-isethionate, 2 KCl, 4 MgCl2, 10 HEPES, 12 glucose and 0.001 TTX, pH 7.35 with NaOH (osmolarity 295-305 mOsm/l). The internal solution for current clamp recordings consisted of (in mM) 110 potassium methylsulphate, 2 MgCl2, 40 HEPES, 5 EGTA, 12 phosphocreatine, 2 Na2ATP, 0.2 Na3GTP, and 0.1 leupeptin, pH 7.2 with H2SO4 (osmolarity 260-270 mOsm/l). In the case of current clamp recordings, TTX was omitted from external solution. For the recordings in the presence of Ca^+2 ions EGTA was omitted from internal solution and 4 mM of MgCl2 was substituted by 2 mM of CaCl2 and 2 mM of MgCl2. All drugs were obtained from Sigma (St. Louis, […]) except BDS-I that was obtained from Alomone Labs (Jerusalem, Israel). Solutions were applied by gravity fed sewer pipe system. Recordings were obtained with Axon Instruments 200 patch-clamp amplifier and controlled and monitored with a PC running pClamp software (version 7.0) (Axon Instruments Inc., Union City, Calif.). […] After seal rupture, series resistance (2-10 MΩ) was compensated (75-90%) and periodically monitored. […] Activation data were fit with a Boltzmann equation of the form: 1/(1+exp ((Vh−V)/Vc), V stands for membrane potential. In the case of Kv3.4a current, an estimate of peak current was obtained by single exponential fit of decay phase extrapolated to the start of test pulse. In all other instances the voltage dependence of the currents was obtained from the amplitude of tail currents measured following 200 msec long voltage steps. […]

**Q.** Which results are given for “BDS-I (AAPCFCSGKPGRGDLWILRGTCPGGYGYTSNCYKWPNICCYPH)”?
**A.** effects on Kv3.1 channel currents (Kv3.1 channel): only minor effects; change in the rate of rise in the spike (FS neurons): no obvious change; increase of duration of spikes in FS neurons (FS neurons; BDS-I 2 μM, extracellular Ca2+ 2 mM, n=4): 53+13%; rate of repetitive spiking evoked by sustained current injection (FS neurons; with and without extracellular Ca2+): slowed
